Key:
[1] = tested on: CD4+ T cells; assay: exogenous autologous normal donor restimulation assay, TNFα/IFNγ double positive CD4+ T cells by flow cytometry; format: cell-based, human; settings: donor independent, peptide pool 10 μg/mL, healthy donors; for Fold change (CD4+) vs. DMSO: maximum CD4+ T-cell response (TNFα and IFNγ); for Frequency (TNFα + IFNγ + CD4 T cells): maximum CD4+ T-cell response
Method: (§1) The immunogenicity of neoantigens was assessed using the exogenous autologous normal donor restimulation assay. […] The lyophilized peptides were solubilized in 100% DMSO.
(§2) CD1c+ Dendritic Cells (CD1c+DC) isolated from human healthy PBMCs were thawed using media (IMDM (Gibco) supplemented with glutamine, HEPES, 5% human serum (Sigma), and 1× Pen-Strep). DC cells were resuspended in media supplemented with IL-4 (Peprotech, 20 ng/mL) and GM-CSF (Gibco, 20 ng/mL), plated in 6 well microplates, and rested overnight at 37° C. and 5% CO2 incubator. The following day, DC cells were counted and plated in a 96 well round bottom microplate at a concentration of 30,000 viable cells per well. Lyophilized neoantigen peptide pools (15-mer peptides with 8-mer overlapping peptide sequences) were solubilized in 100% DMSO with a stock concentration of 20 mg/mL Neoantigen peptides pools were added to DCs for a final concentration of 10 μg/mL and rested for 2 hours at 37° C. and 5% CO2 incubator. CEF Peptide Pool “Plus” (Cellular Technologies, Ltd.) was utilized as a positive control (each viral peptide at a final concentration of 4 ug/ml) and DMSO at the same final concentration (0.05%) as the experimental peptides was utilized as a negative control. After 2 hours, DC cells were irradiated with 50 gray of ionizing radiation. Autologous CD3+ Pan-T cells isolated from human normal PBMCs were thawed using media. Following irradiation, autologous Pan-T cells were added to the irradiated DCs at 300,000 viable cells per well. Human IL-15 (Peprotech) was added to all wells at final concentration of 10 ng/ml. Plates were incubated at 37° C. and 5% CO2 incubator for a total of 12 days. Media was refreshed every 2-3 days with IL-15 (R&D System, 10 ng/mL final concentration) and IL-2 (R&D systems, 10 IU/mL final concentration).
(§3) On Day 11, cells were re-stimulated with identical experimental peptide pools or controls, at same concentration as peptide stimulation on Day 1. Protein Inhibitor Cocktail (eBioscience) was added to every well and plate was incubated overnight for 14-16 hours at 37° C. and 5% CO2 incubator. On Day 12, cells were stained for surface and intracellular flow cytometry analysis. The cells were washed with PBS and stained with Live/Dead Fixable Aqua Dead Cell stain (Thermo-Fisher). Following the live/dead stain, cells were blocked using Biotin-Fre Fc Receptor Blocker (Accurate Chemical & Scientific Corp). Extracellular cellular flow panel ([…] per well in 50 μL) consisted of CD3 PerCP-Cy5.5 (Biolegend), CD4 BV421 (Biolegend), and CD8 APC-Cy7 (Biolegend). After extracellular staining, cells were fixed and permeabilized using Foxp3/Transcription Factor Staining Buffer Set (eBioscience) and stained for intracellular proteins (1:50 dilution) using TNFα FITC (R&D Systems) and IFNγ BV785 (Biolegend). Cells were washed and resuspended in stain buffer, analyzed, and recorded in a BD Celesta flow cytometer.
(§4) Flow cytometry analysis was conducted on FlowJo v10.6 software. Cells were gated on live, singlet, CD3+, CD4+ and CD8+ T cells. The CD8+ and CD4+ T cells were analyzed for TNFα and IFNγ expression.
(§5) The immunogenicity of neoantigens was first investigated in 9-16 healthy donors.

[2] = tested on: CD8+ T cells; assay: exogenous autologous normal donor restimulation assay, TNFα/IFNγ double positive CD8+ T cells by flow cytometry; format: cell-based, human; settings: for Fold change (CD8+) vs. DMSO: maximum CD8+ T-cell response (TNFα and IFNγ); for Fold change (CD8+) vs. DMSO / Frequency (TNFα + IFNγ + CD8 T cells): donor independent, peptide pool 10 μg/mL, healthy donors; for Frequency (TNFα + IFNγ + CD8 T cells): maximum CD8+ T-cell response; for Immunogenic (yes/no): positive if CD8+ and/or CD4+ double positive TNFα/IFNγ frequency >=3-fold over DMSO and at least 0.01%
Method: as §1, §2, §3, §4, §5

Row | Sequence | Fold change (CD4+) vs. DMSO [1] [fold] | Frequency (TNFα + IFNγ + CD4 T cells) [1] [%] | Fold change (CD8+) vs. DMSO [2] [fold] | Frequency (TNFα + IFNγ + CD8 T cells) [2] [%] | Immunogenic (yes/no) [2]
1 | QTDFAYDSGKRLGWGRVACDQVFS [AS3, neoantigen, alternative splicing of ETV4] | 7.31 | 0.1 | 133.13 | 0.43 | Yes
2 | QTQEETDRDRGSWSCAVA [AS64, neoantigen, alternative splicing of IQGAP3] | 5.43 | 0.024 | 33.44 | 0.21 | Yes
3 | RASCGAQKACDVNQLTSS [FUS17, neoantigen, gene fusion C20orf204->TCEA2] | 6.91 | 0.045 | 13.53 | 0.23 | Yes
4 | RGGRGAQENSLD [FUS10, neoantigen, gene fusion SCNN1A->TNFRSF1A] | 20.13 | 0.072 | 896.55 | 19.5 | yes
5 | RLDDSGIGNFITSLLNFISKFFCSFMGA [AS99, neoantigen, alternative splicing of FAM221A] | 4 | 0.077 | 160.85 | 1.43 | Yes
6 | RNTLKESSKLKSSFEYWFAGFFSSSSSFFFLSRKFCFVFCLCWVESLGGVS [AS157, neoantigen, alternative splicing of ZIC4] | 5.53 | 0.083 | 51.78 | 0.16 | Yes
7 | RRHGEVQGLLEREKTARGNPSG [AS72, neoantigen, alternative splicing of SMC1B] | 4.15 | 0.036 | 8.6 | 0.23 | Yes
8 | RSSGLTTSSEYSTHVHMPLILHQAEQELLLLINP [AS141, neoantigen, alternative splicing of MUC16] | 6.94 | 0.045 | 3.82 | 0.041 | Yes
9 | RYWTPATSSEYSNL [AS143, neoantigen, alternative splicing of MUC16] | 3.6 | 0.033 | 12.1 | 0.13 | Yes
10 | SGCRLTLLSLSPVSSLGCPVPMP [AS107, neoantigen, alternative splicing of MUC16] | 14.89 | 0.062 | 2351.27 | 16.6 | Yes
11 | SHALNWNKIGRMFRASRV [AS65, neoantigen, alternative splicing of LCN10] | 73.69 | 0.64 | 82.3 | 2.2 | Yes
12 | SISLTDDEAELPLLDL [AS77, neoantigen, alternative splicing of EP400] | 20.73 | 0.18 | 6.59 | 0.12 | Yes
